pIC50: −log10 of the molar value.
Assays:
AMPA receptors = assay: AMPA receptor binding affinity (Honore et al. method); details: Table 1, AMPA
[1] = molecular target: kainate site (non-NMDA receptor); assay: Kainate site (non-NMDA receptor) binding affinity (London and Coyle method); details: Table 1, KA (kainate)
[2] = molecular target: T1, glycine site of the NMDA receptor (Rattus norvegicus, UniProt P35439); assay: Glycine site of the NMDA receptor binding affinity (Jones et al. method); details: Table 1, GLY (glycine site of NMDA receptor)
T1 construct: from tissue

Row | SMILES | pIC50 (AMPA receptors) | IC50 KA [1] [µM] | pIC50 [2]
1 | CCOC(=O)c1ccc(NC(=O)N(C)Cc2c(C)c([N+](=O)[O-])cc3[nH]c(=O)c(=O)[nH]c23)cc1 [Compound 7, 4-(3-Methyl-3-(6-methyl-7-nitro-2,3-dioxo-1,2,3,4-tetrahydro-quinoxalin-5-ylmethyl)ureido)-benzoic acid ethyl ester] | 5.39 | 18.4 | 8.00
2 | COc1ccc(NC(=S)N(C)Cc2c(C)c([N+](=O)[O-])cc3[nH]c(=O)c(=O)[nH]c23)cc1 [Compound 3, 3-(4-Methoxy-phenyl)-1-methyl-1-(6-methyl-7-nitro-2,3-dioxo-1,2,3,4-tetrahydro-quinoxalin-5-ylmethyl)-thiourea] | 6.64 | 2.54 | 7.40
3 | COc1ccc(OC)c(NC(=O)N(C)Cc2c(C)c([N+](=O)[O-])cc3[nH]c(=O)c(=O)[nH]c23)c1 [Compound 5, 3-(2,5-Dimethoxy-phenyl)-1-methyl-1-(6-methyl-7-nitro-2,3-dioxo-1,2,3,4-tetrahydro-quinoxalin-5-ylmethyl)-urea] | 5.52 | 9.54 | 8.00
4 | COc1ccc(NC(=O)N(C)Cc2c(C)c([N+](=O)[O-])cc3[nH]c(=O)c(=O)[nH]c23)cc1 [Compound 2, 3-(4-Methoxy-phenyl)-1-methyl-1-(6-methyl-7-nitro-2,3-dioxo-1,2,3,4-tetrahydro-quinoxalin-5-ylmethyl)-urea] | 6.77 | 1.12 | 8.30
5 | Cc1c([N+](=O)[O-])cc2[nH]c(=O)c(=O)[nH]c2c1CN(C)C(=O)Nc1ccccc1 [Compound 1, 1-Methyl-1-(6-methyl-7-nitro-2,3-dioxo-1,2,3,4-tetrahydro-quinoxalin-5-ylmethyl)-3-phenyl-urea] | 6.89 | 0.82 | 8.10
6 | Cc1ccc(NC(=O)N(C)Cc2c(C)c([N+](=O)[O-])cc3[nH]c(=O)c(=O)[nH]c23)c(C)c1 [Compound 4, 3-(2,4-Dimethyl-phenyl)-1-methyl-1-(6-methyl-7-nitro-2,3-dioxo-1,2,3,4-tetrahydro-quinoxalin-5-ylmethyl)-urea] | 5.44 | 6.7 | 7.70
7 | Cc1c([N+](=O)[O-])cc2[nH]c(=O)c(=O)[nH]c2c1CN(C)C(=O)Nc1ccccc1C(F)(F)F [Compound 6, 1-Methyl-1-(6-methyl-7-nitro-2,3-dioxo-1,2,3,4-tetrahydro-quinoxalin-5-ylmethyl)-3-(2-trifluoromethyl-phenyl)-urea] | 5.55 | 7.50 | 8.00

Reference: patent publication US6172065A, “Urea and thiourea derivatives of substituted quinoxaline 2,3-diones as glutamate receptor antagonists” (Warner-Lambert Company, priority 1998, dated 2001)
